Laboratory results taken from patent US10912767B2, “Anthracycline prodrugs and methods of making and using the same” (THE REGENTS OF THE UNIVERSITY OF COLORADO, priority 2015, dated 2021).
Where two headings read alike, the source gives them in different places.

Legend:
[1] = Quantum yield of photocleavage, He-Cd laser 325 nm, HPLC; format: physicochemical
Procedure: Initially, measurement of the quantum yield of photodoxazolidine R═H was done in a fully-absorbing solution of photoactive drug in a solution of 90% dimethylacetamide (DMA), 10% water in a 1×1 cm quartz cuvette equipped with a small magnetic stir bar. A stock of photodoxazolidine in DMA was diluted in 9:1 DMA:H2O to a final concentration of 373 μM in a final volume of 3.380 mL. […] The cuvette was placed into the path of an Omnichrome He-Cd laser (single-window power: 10.75 mW at 325 nm using a Scientech laser power meter). The solution was mixed by the stir bar, which was agitated with a magnetic stir plate placed vertically next to the cuvette. Aliquots of 20 μL were removed at times between 0 and 62 min of irradiation and those aliquots were analyzed by HPLC (method 2) for the ratio of dox to photodoxazolidine. The quantum yield was calculated from the ratio of molecules of doxorubicin (dox) formed to photons absorbed.
To allow for better comparison between the quantum yield of photocleavage of photodoxazolidine with the quantum yield for azido-PEG-photodoxazolidine, the measurement was retaken with 50% acetonitrile in water as a solvent. […] Photodoxazolidine (in DMF) was diluted with 30 mL of 50% acetonitrile to a final concentration of 104 μM. The solution was confirmed to be fully absorbing by monitoring the laser power exiting the cell throughout the course of the experiment, which never deviated from 0 mW. As above, the contents of the cell were mixed with a small magnetic stir bar. Aliquots of 50 μL were removed at various times and analyzed as described above. The calculated quantum yield in this solvent system was identical to that measured from the […] system used above.
Concentration of azido-PEG-photodoxazolidine was determined via absorbance (λ=480 nm, ε=11500 M^−1 cm^−1). A sample ([…]) was dissolved in 1 mL of ACN and transferred to a cuvette. A 12.4 mW Omnichrome HeCd was used to irradiate the solution for 30 min at 325 nm. Aliquots of 10 μL were collected at different times and analyzed by HPLC to determine the % Dox in relation to that of azido-PEG-photodoxazolidine. In calculating quantum yield: power (without cuvette)=12.4 mW, (with cuvette)=10.7 mW, incident light=11.55 mW; energy=0.462 J, 7.55×1017 photons; t=40 sec when % Dox=9.2. Experiments were performed in triplicate.
Azido-PEG-photodoxazolidine was irradiated with a 12.4 mW monochromatic laser at 325 nm for 30 min. Aliquots were collected throughout to determine the amount of azido-PEG-photodoxazolidine in relation to released doxorubicin, which was quantified by HPLC. […] The average of triplicate quantum yield experiments was 0.025. This value is in the low end of the quantum yield range, yet is beneficial because it signifies that UV must be applied for longer durations prior to release of the cytotoxic agent. This makes administration of this photo-activated prodrug safer, and its synthesis more practical.

[2] = system: NCI/ADR-RES multi-drug resistant ovarian cancer cell line; assay: Tumor cell growth inhibition, crystal violet (Example 2); format: cell-based; conditions: Homo sapiens
Source text: (§1) In order to investigate the photolysis of the drugs in a system amenable to cell culture use, a custom UV irradiation apparatus was constructed, consisting of 3 small blacklight fluorescent bulbs (Southern New England Ultraviolet Co., λmax=350 nm) set between two ring stands and suspended at a height of 11.5 cm. The bulbs' housing was reflective aluminum so as to direct as much UV irradiation as possible downward toward the plate. Upon installation in sterile cell culture hood, the power of the system was measured at approximately 6-7 mW using a Scientech laser power meter. Prior to experimentation, the hood and irradiation apparatus was sterilized with 254 nm germicidal UV irradiation overnight. Using this setup, 100 μM of 4,5-dimethoxy-2-nitrobenyl alcohol (DMNA), photodoxazolidine R═H, and glucose-PEG-photodoxazoldine were irradiated in individual wells of a 24-well plate. Initially, 50 μL of a DMSO stock was diluted with 950 μL of PBS and aliquots of 50 μL were removed at various times (0-180 min), mixing by pipetting each time. The timepoints were analyzed by HPLC (method 2) and plotted as fractional conversion versus time. […] Therefore, a second experiment was performed in which the PBS was replaced with 1:1 acetonitrile:water. With this system of 5% DMSO/47.5% acetonitrile/47.5% water, no visible precipitation was produced over the course of the reaction.
(§2) The ovarian carcinoma line NCl/ADR-RES (ADR) was grown in high-glucose Dulbecco's Modified Eagle Medium (DMEM) supplemented with 10% fetal bovine serum (FBS), 200 units/mL of penicillin and 200 μg/mL of streptomycin. The breast carcinoma line MDA-MB-231 was cultured in low-glucose DMEM with the same additives. Both lines were maintained in a humidified incubator with 5% CO2/95% air at 37° C. UV irradiations were performed with the apparatus described above.
(§3) Growth inhibition experiments were performed by seeding cells into 96-well plates or 24-well plates at densities of 1000-1500 cells per well or 8000 cells per well, respectively, and allowing the cells to adhere overnight. The media was then replaced with a range of aqueous concentrations of the drug in question and allowed to incubate at 37° C. with the cells for a span of time (Inc1) which ranged from 1 min to 48 hours. Irradiation was performed at room temperature with the plate's lid removed and ranged from 1 to 30 min. In some experiments, the drug solution was removed following Inc1 and irradiated in clean media or PBS. Following irradiation, the cells were placed back into the 37° C. incubator for a second period of incubation (Inc2), which varied between 1 min and 24 h, prior to replacement with fresh media. Plates which received no irradiation but identical treatment otherwise were done in parallel. The cells were then grown until the no-drug control wells reached approximately 80% confluence or 5 days, whichever was shorter. […] The cells were fixed with 5% formalin in PBS, stained with crystal violet, washed with tap water, and air-dried. The stain was resolubilized in 50% isopropyl alcohol, 50% H2O containing 2% (w/v) SDS. The staining density was read on a multiwell plate reader at 588-600 nm. Percentage cell density was calculated relative to the irradiated no-drug control wells, plotted as a function of drug concentration, and fit using non-linear least squared analysis with a variable-slope dose response model in GraphPad Prism 5.0 software.
(§4) Although the introduction of a long-pass glass filter between the light source and the plate alleviated this effect to a small extent, a maximum irradiation time of 10 min was settled upon. […] Since a media change at that point would remove the cells as well, the re-adherence of the cell population was accomplished by the addition of a large volume (200 μL) of complete media following Inc2, and overnight incubation. Then, a full media change was done to remove the drug. […]

[3] = system: MDA-MB-231 breast carcinoma cells; assay: Tumor cell uptake by flow cytometry; format: cell-based, human; conditions: 500 nM, 30 min to 4 h, compared against doxorubicin
Procedure: Uptake of the drugs by the cells was measured by flow cytometry. The cells were incubated with 500 nM photodoxazolidine R═H, azido-PEG-photodoxazolidine, or doxorubicin dissolved in 1:1 PBS:serum-free media for between 30 min and 4 h, after which the drug was removed and the cells washed with cold PBS. Cells were trypsinized to a single-cell suspension, rinsed again in cold PBS, and stored on ice for analysis by flow cytometry, monitoring the presence of the anthraquinone fluorophore (channel FL2). Cell populations were gated for intact cells in the side-scatter/forward-scatter plot and 10,000 gated events were scored for each timepoint. The mean fluorescence of the population was compared to the mean fluorescence of 10,000 gated events for an untreated population and the fold increase over background was plotted versus time of drug incubation.
Using MDA-MB-231 breast carcinoma cells, the cellular uptake of photodoxazolidine and azido-PEG-photodoxazolidine was analyzed by flow cytometry and compared against the uptake of doxorubicin.

[4] = system: MDA-MB-231 breast cancer cells; assay: Tumor cell growth inhibition, crystal violet (Example 2); format: cell-based, human; conditions: Homo sapiens
Source text: as §1, §2, §3, §4

[5] = In vivo body weight change as indication of toxicity; set-up: species or system nude mice; conditions: 4 mg/kg dox equivalent iv weekly x6; photodoxazolidine with 18-FDG ip
Procedure: For reconstitution for intravenous injection into mice, dry photodoxazolidine R═H (23 mg) was dissolved in 785 μL of DMSO for a final concentration of 34.5 mM, labeled “Drug Stock,” and stored dark at −20° C. Shortly before injection, the Drug Stock was thawed and 20-50 μL was transferred to a new tube. To this tube, 6 volumes (relative to the Drug Stock volume) of PEG-400 and 4 volumes of propylene glycol (PG) were added and the solution thoroughly mixed by vortexing. Immediately prior to injection, 9 volumes of saline (0.9% NaCl) was added to the DMSO/PEG/PG solution of photodoxazolidine and mixed by vortexing. […] Therefore, this formulation was used as prepared. This protocol produces a final formulation of 5% DMSO, 30% PEG-400, 20% PG, 45% saline. A standard injection of 100 μL of this formulation delivers 4 mg dox equivalent/kg body weight for a mouse weighing 0.025 kg.
Luciferase-positive MDA-MB-231 cells were maintained in MEM culture medium supplemented with 10% heat inactivated fetal bovine serum and 2% penicillin/streptomycin. Prior to injection, typsinized cell populations were counted with a Z1 Coulter Particle counter, centrifuged, and resuspended in Hank's Balanced Salt Solution (HBSS) at a concentration of 4.0×10^7 cells/mL. […] Body weight and tumor growth were measured regularly. Tumor growth was measured optically from the bioluminescence signal from injection of luciferin. […]

cancer cells = conditions: cited from earlier work
[6] = 37° C., pH 7.4; cited from earlier work

Question: With `COc1cc(C(C)OC(=O)N2CO[C@@H]3[C@H](C)O[C@@H](O[C@H]4C[C@](O)(C(=O)CO)Cc5c(O)c6c(c(O)c54)C(=O)c4c(OC)cccc4C6=O)C[C@@H]32)c([N+](=O)[O-])cc1OCC(=O)NCCOCCOCCOCCN=[N+]=[N-]` (mixture of isomers) [Azido-PEG-photodoxazolidine] as the compound, how does the “quantum yield, fold larger than photodoxazolidine” value [1] read?
Answer: 5-10 fold

Question: And the doxorubicin released ([1]; 40 sec irradiation, 12.4 mW laser at 325 nm)?
Answer: 9.2%

Question: What about the quantum yield ([1]; ACN, 325 nm, average of triplicate) of the same compound?
Answer: 0.025

Question: And the quantum yield ([1]; stated as suspected)?
Answer: 0.01-0.02

Question: And the IC50 ([2]; 10 min)?
Answer: 0.081 ± 0.007 µM

Question: What about the “cellular uptake (cellular fluorescence)” value [3] of the same compound?
Answer: only marginally improved uptake over doxorubicin

Question: What does the source list for `COc1cccc2c1C(=O)c1c(O)c3c(c(O)c1C2=O)C[C@@](O)(C(=O)CO)C[C@@H]3O[C@H]1C[C@H](N)[C@H](O)[C@H](C)O1` [Dox, doxorubicin, reference compound]?
Answer: IC50 ([2]; 3 h treatment, read-out: IC50): 10 µM; IC50 ([4]; MDA-MB-231, 3 h treatment, read-out: IC50): 0.36 ± 0.03 µM; body weight change [5]: significant weight loss

Question: For `COc1cccc2c1C(=O)c1c(O)c3c(c(O)c1C2=O)C[C@@](O)(C(=O)CO)C[C@@H]3OC1CC2C(OCN2CN2COC3C(C)OC(O[C@H]4C[C@](O)(C(=O)CO)Cc5c(O)c6c(c(O)c54)C(=O)c4c(OC)cccc4C6=O)CC32)C(C)O1` (stereo partly shown) [DoxF], which “anti-tumor activity, fold above doxorubicin” value (cancer cells) is on record?
Answer: approximately 100 fold

Question: With `COc1cccc2c1C(=O)c1c(O)c3c(c(O)c1C2=O)C[C@@](O)(C(=O)CO)C[C@@H]3O[C@H]1C[C@@H]2NCO[C@@H]2[C@H](C)O1` [Doxaz, doxazolidine, reference compound] as the compound, how does the half-life [6] read?
Answer: 3 min

Question: And the IC50 ([2]; 3 h)?
Answer: 0.003 ± 0.0002 µM

Question: And the IC50 ([4]; MDA-MB-231, 3 h)?
Answer: 0.005 to 0.01 µM
